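Dose response: 5 concentrations. Exposure: 48 h. Format: 96-well plates. Endpoint: linear interpolation; highest concentration if not reached. TGI denotes the concentration required for complete inhibition of growth.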

The first assay relates to T-47D breast. The assay is described as follows: growth of human tumour cells (NCI), 48 h.
As to `COc1ccc(C2SCC(=O)N2c2ccc(-c3ccc(-n4c(-c5ccccc5)nc5ccccc5c4=O)cc3)cc2)cc1OC` (stereo unspecified), the TGI was above 100 µM.
Still for that read-out and setting: then `C=CCC1(OCc2ccccc2)C(=O)C(=O)OC1C1COC(C)(C)O1` (stereo unspecified), with above 100 µM.

Another assay relates to MDA-N. Kind of assay: growth of human tumour cells (NCI), 48 h.
Compound `COc1cc2c(cc1OC)C1C=NC(C2)c2cc(OC)c(OC)cc21` (stereo unspecified) displayed a TGI above 100 µM.
Still for that read-out and setting: with `CCC1(c2ccccc2)C(=O)N=C(c2ccccc2)N1CCc1ccccc1` (stereo unspecified) the figure was above 100 µM.
Still for that read-out and setting: with `COc1ccc(C2SCC(=O)N2c2ccc(-c3ccc(-n4c(-c5ccccc5)nc5ccccc5c4=O)cc3)cc2)cc1OC` (stereo unspecified) the figure was above 100 µM; with `C=CCC1(OCc2ccccc2)C(=O)C(=O)OC1C1COC(C)(C)O1` (stereo unspecified), above 100 µM.

Another assay has as its system UACC-257 melanoma. The assay is described as follows: growth of human tumour cells (NCI), 48 h.
Consider `COc1cc2c(cc1OC)C1C=NC(C2)c2cc(OC)c(OC)cc21` (stereo unspecified), for which the TGI is above 100 µM.
The same measure, in the same setting: with `CCC1(c2ccccc2)C(=O)N=C(c2ccccc2)N1CCc1ccccc1` (stereo unspecified) the figure was above 100 µM; with `COc1ccc(C2SCC(=O)N2c2ccc(-c3ccc(-n4c(-c5ccccc5)nc5ccccc5c4=O)cc3)cc2)cc1OC` (stereo unspecified), above 100 µM.
On to `C=CCC1(OCc2ccccc2)C(=O)C(=O)OC1C1COC(C)(C)O1` (stereo unspecified), for which the TGI is above 100 µM.

The next assay has as its system UO-31 renal. Kind of assay: growth of human tumour cells (NCI), 48 h.
As to `COc1cc2c(cc1OC)C1C=NC(C2)c2cc(OC)c(OC)cc21` (stereo unspecified), the TGI was above 100 µM.
With `CCC1(c2ccccc2)C(=O)N=C(c2ccccc2)N1CCc1ccccc1` (stereo unspecified), the TGI was above 100 µM.
The compound `COc1ccc(C2SCC(=O)N2c2ccc(-c3ccc(-n4c(-c5ccccc5)nc5ccccc5c4=O)cc3)cc2)cc1OC` (stereo unspecified) displayed a TGI above 100 µM.
On the same count and under the same terms, with `C=CCC1(OCc2ccccc2)C(=O)C(=O)OC1C1COC(C)(C)O1` (stereo unspecified) the figure was above 100 µM.

A further assay concerns OVCAR-8 ovarian. The assay is described as follows: growth of human tumour cells (NCI), 48 h.
The compound `COc1cc2c(cc1OC)C1C=NC(C2)c2cc(OC)c(OC)cc21` (stereo unspecified) yielded a TGI above 100 µM.
The compound `CCC1(c2ccccc2)C(=O)N=C(c2ccccc2)N1CCc1ccccc1` (stereo unspecified) had a TGI above 100 µM.
Same read-out and setting: with `COc1ccc(C2SCC(=O)N2c2ccc(-c3ccc(-n4c(-c5ccccc5)nc5ccccc5c4=O)cc3)cc2)cc1OC` (stereo unspecified) the figure was above 100 µM; with `C=CCC1(OCc2ccccc2)C(=O)C(=O)OC1C1COC(C)(C)O1` (stereo unspecified), above 100 µM.

A further assay concerns PC-3 prostate. The assay is described as follows: growth of human tumour cells (NCI), 48 h.
On to `COc1cc2c(cc1OC)C1C=NC(C2)c2cc(OC)c(OC)cc21` (stereo unspecified), for which the TGI was above 100 µM.
`CCC1(c2ccccc2)C(=O)N=C(c2ccccc2)N1CCc1ccccc1` (stereo unspecified) registered a TGI above 100 µM.
With `COc1ccc(C2SCC(=O)N2c2ccc(-c3ccc(-n4c(-c5ccccc5)nc5ccccc5c4=O)cc3)cc2)cc1OC` (stereo unspecified), the TGI is above 100 µM.
Still for that read-out and setting: with `C=CCC1(OCc2ccccc2)C(=O)C(=O)OC1C1COC(C)(C)O1` (stereo unspecified) the figure was above 100 µM.

For the next assay, the system named is UACC-62 melanoma. The assay is described as follows: growth of human tumour cells (NCI), 48 h.
As for `COc1cc2c(cc1OC)C1C=NC(C2)c2cc(OC)c(OC)cc21` (stereo unspecified), the TGI is above 100 µM.
On the same count and under the same terms, then `CCC1(c2ccccc2)C(=O)N=C(c2ccccc2)N1CCc1ccccc1` (stereo unspecified), with above 100 µM; and `COc1ccc(C2SCC(=O)N2c2ccc(-c3ccc(-n4c(-c5ccccc5)nc5ccccc5c4=O)cc3)cc2)cc1OC` (stereo unspecified), with above 100 µM.
Turning to `C=CCC1(OCc2ccccc2)C(=O)C(=O)OC1C1COC(C)(C)O1` (stereo unspecified), the TGI is above 100 µM.

The test system of the next assay is SK-MEL-28 melanoma. The assay is described as follows: growth of human tumour cells (NCI), 48 h.
For `COc1cc2c(cc1OC)C1C=NC(C2)c2cc(OC)c(OC)cc21` (stereo unspecified), the TGI is above 100 µM.
For `CCC1(c2ccccc2)C(=O)N=C(c2ccccc2)N1CCc1ccccc1` (stereo unspecified), the TGI is above 100 µM.
In turn, `COc1ccc(C2SCC(=O)N2c2ccc(-c3ccc(-n4c(-c5ccccc5)nc5ccccc5c4=O)cc3)cc2)cc1OC` (stereo unspecified) had a TGI above 100 µM.
The compound `C=CCC1(OCc2ccccc2)C(=O)C(=O)OC1C1COC(C)(C)O1` (stereo unspecified) registered a TGI above 100 µM.

The test system of another assay is SK-MEL-5 melanoma. The assay is described as follows: growth of human tumour cells (NCI), 48 h.
On to `COc1cc2c(cc1OC)C1C=NC(C2)c2cc(OC)c(OC)cc21` (stereo unspecified), for which the TGI was above 100 µM.
Compound `CCC1(c2ccccc2)C(=O)N=C(c2ccccc2)N1CCc1ccccc1` (stereo unspecified) came in with a TGI above 100 µM.
Compound `C=CCC1(OCc2ccccc2)C(=O)C(=O)OC1C1COC(C)(C)O1` (stereo unspecified) showed a TGI above 100 µM.

The subject of a further assay is SNB-75 CNS. Kind of assay: growth of human tumour cells (NCI), 48 h.
Compound `COc1cc2c(cc1OC)C1C=NC(C2)c2cc(OC)c(OC)cc21` (stereo unspecified) yielded a TGI above 100 µM.
Same read-out and setting: then `CCC1(c2ccccc2)C(=O)N=C(c2ccccc2)N1CCc1ccccc1` (stereo unspecified), with above 100 µM; and `COc1ccc(C2SCC(=O)N2c2ccc(-c3ccc(-n4c(-c5ccccc5)nc5ccccc5c4=O)cc3)cc2)cc1OC` (stereo unspecified), with above 100 µM.
Still for that read-out and setting: with `C=CCC1(OCc2ccccc2)C(=O)C(=O)OC1C1COC(C)(C)O1` (stereo unspecified) the figure was above 100 µM.

Another assay has as its system MDA-MB-231 breast. Kind of assay: growth of human tumour cells (NCI), 48 h.
In turn, `COc1cc2c(cc1OC)C1C=NC(C2)c2cc(OC)c(OC)cc21` (stereo unspecified) displayed a TGI above 100 µM.
The same measure, in the same setting: then `CCC1(c2ccccc2)C(=O)N=C(c2ccccc2)N1CCc1ccccc1` (stereo unspecified), with above 100 µM.
The compound `COc1ccc(C2SCC(=O)N2c2ccc(-c3ccc(-n4c(-c5ccccc5)nc5ccccc5c4=O)cc3)cc2)cc1OC` (stereo unspecified) displayed a TGI above 100 µM.
On the same count and under the same terms, with `C=CCC1(OCc2ccccc2)C(=O)C(=O)OC1C1COC(C)(C)O1` (stereo unspecified) the figure was above 100 µM.

The subject of the next assay is M14 melanoma. Kind of assay: growth of human tumour cells (NCI), 48 h.
Take `COc1cc2c(cc1OC)C1C=NC(C2)c2cc(OC)c(OC)cc21` (stereo unspecified): the TGI is above 100 µM.
`CCC1(c2ccccc2)C(=O)N=C(c2ccccc2)N1CCc1ccccc1` (stereo unspecified) gave a TGI above 100 µM.
Compound `COc1ccc(C2SCC(=O)N2c2ccc(-c3ccc(-n4c(-c5ccccc5)nc5ccccc5c4=O)cc3)cc2)cc1OC` (stereo unspecified) yielded a TGI above 100 µM.
`C=CCC1(OCc2ccccc2)C(=O)C(=O)OC1C1COC(C)(C)O1` (stereo unspecified) gave a TGI above 100 µM.

A further assay has as its system SNB-19 CNS. Kind of assay: growth of human tumour cells (NCI), 48 h.
The compound `COc1cc2c(cc1OC)C1C=NC(C2)c2cc(OC)c(OC)cc21` (stereo unspecified) registered a TGI above 100 µM.
`CCC1(c2ccccc2)C(=O)N=C(c2ccccc2)N1CCc1ccccc1` (stereo unspecified): the TGI is above 100 µM.
As for `COc1ccc(C2SCC(=O)N2c2ccc(-c3ccc(-n4c(-c5ccccc5)nc5ccccc5c4=O)cc3)cc2)cc1OC` (stereo unspecified), the TGI was above 100 µM.
Still for that read-out and setting: with `C=CCC1(OCc2ccccc2)C(=O)C(=O)OC1C1COC(C)(C)O1` (stereo unspecified) the figure was above 100 µM.

The next assay has as its system HOP-92 NSCLC. Kind of assay: growth of human tumour cells (NCI), 48 h.
`COc1cc2c(cc1OC)C1C=NC(C2)c2cc(OC)c(OC)cc21` (stereo unspecified) yielded a TGI above 100 µM.
Turning to `CCC1(c2ccccc2)C(=O)N=C(c2ccccc2)N1CCc1ccccc1` (stereo unspecified), the TGI is above 100 µM.
Turning to `COc1ccc(C2SCC(=O)N2c2ccc(-c3ccc(-n4c(-c5ccccc5)nc5ccccc5c4=O)cc3)cc2)cc1OC` (stereo unspecified), the TGI is above 100 µM.

For the next assay, the system named is OVCAR-4 ovarian. The assay is described as follows: growth of human tumour cells (NCI), 48 h.
With `COc1cc2c(cc1OC)C1C=NC(C2)c2cc(OC)c(OC)cc21` (stereo unspecified), the TGI is above 100 µM.
As for `CCC1(c2ccccc2)C(=O)N=C(c2ccccc2)N1CCc1ccccc1` (stereo unspecified), the TGI was above 100 µM.
`COc1ccc(C2SCC(=O)N2c2ccc(-c3ccc(-n4c(-c5ccccc5)nc5ccccc5c4=O)cc3)cc2)cc1OC` (stereo unspecified) registered a TGI above 100 µM.
Same read-out and setting: then `C=CCC1(OCc2ccccc2)C(=O)C(=O)OC1C1COC(C)(C)O1` (stereo unspecified), with above 100 µM.

The values are drawn from PubChem BioAssay (NCI).
